Source: patent publication US20240150377A1, “MODULATORS OF CYSTIC FIBROSIS TRANSMEMBRANE CONDUCTANCE REGULATOR” (VERTEX PHARMACEUTICALS INCORPORATED, priority 2020, published 2024)
Like-named read-outs stand apart in the source and are kept apart here.

Molecular target: T1, CFTR (Homo sapiens, UniProt P13569, DEL508-508)
T1 construct: endogenous in cells; host or cells: primary human bronchial epithelial cells from CF subjects (F508del/MF-HBE), differentiated at air-liquid interface
Experiment: HBE assay: Ussing chamber assay of CFTR-mediated short-circuit currents
Assay type: cell-based
Conditions: for EC50: read-out: HBE EC50; for Emax: read-out: HBE Max Activity (%); for activation at 10 µM: read-out: HBE Activity at 10 μM (%)
Procedure, shortened: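 CFTR-mediated Isc (μA/cm²) equals the peak response to apical 20 μM forskolin minus the residual after a 20 μM each BPO/GlyH-101/CFTR inhibitor 172 cocktail, recorded in Ussing chambers at Vhold 0 mV, 37 °C, pH 7.4, with 30 μM apical amiloride. Cells were F508del/MF HBE cultures preincubated 18-24 h with corrector (concentration range or 10 μM) plus 1 μM ivacaftor in 20% human serum.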

T1 sequence (P13569 with tags, fused parts or gaps DEL508-508): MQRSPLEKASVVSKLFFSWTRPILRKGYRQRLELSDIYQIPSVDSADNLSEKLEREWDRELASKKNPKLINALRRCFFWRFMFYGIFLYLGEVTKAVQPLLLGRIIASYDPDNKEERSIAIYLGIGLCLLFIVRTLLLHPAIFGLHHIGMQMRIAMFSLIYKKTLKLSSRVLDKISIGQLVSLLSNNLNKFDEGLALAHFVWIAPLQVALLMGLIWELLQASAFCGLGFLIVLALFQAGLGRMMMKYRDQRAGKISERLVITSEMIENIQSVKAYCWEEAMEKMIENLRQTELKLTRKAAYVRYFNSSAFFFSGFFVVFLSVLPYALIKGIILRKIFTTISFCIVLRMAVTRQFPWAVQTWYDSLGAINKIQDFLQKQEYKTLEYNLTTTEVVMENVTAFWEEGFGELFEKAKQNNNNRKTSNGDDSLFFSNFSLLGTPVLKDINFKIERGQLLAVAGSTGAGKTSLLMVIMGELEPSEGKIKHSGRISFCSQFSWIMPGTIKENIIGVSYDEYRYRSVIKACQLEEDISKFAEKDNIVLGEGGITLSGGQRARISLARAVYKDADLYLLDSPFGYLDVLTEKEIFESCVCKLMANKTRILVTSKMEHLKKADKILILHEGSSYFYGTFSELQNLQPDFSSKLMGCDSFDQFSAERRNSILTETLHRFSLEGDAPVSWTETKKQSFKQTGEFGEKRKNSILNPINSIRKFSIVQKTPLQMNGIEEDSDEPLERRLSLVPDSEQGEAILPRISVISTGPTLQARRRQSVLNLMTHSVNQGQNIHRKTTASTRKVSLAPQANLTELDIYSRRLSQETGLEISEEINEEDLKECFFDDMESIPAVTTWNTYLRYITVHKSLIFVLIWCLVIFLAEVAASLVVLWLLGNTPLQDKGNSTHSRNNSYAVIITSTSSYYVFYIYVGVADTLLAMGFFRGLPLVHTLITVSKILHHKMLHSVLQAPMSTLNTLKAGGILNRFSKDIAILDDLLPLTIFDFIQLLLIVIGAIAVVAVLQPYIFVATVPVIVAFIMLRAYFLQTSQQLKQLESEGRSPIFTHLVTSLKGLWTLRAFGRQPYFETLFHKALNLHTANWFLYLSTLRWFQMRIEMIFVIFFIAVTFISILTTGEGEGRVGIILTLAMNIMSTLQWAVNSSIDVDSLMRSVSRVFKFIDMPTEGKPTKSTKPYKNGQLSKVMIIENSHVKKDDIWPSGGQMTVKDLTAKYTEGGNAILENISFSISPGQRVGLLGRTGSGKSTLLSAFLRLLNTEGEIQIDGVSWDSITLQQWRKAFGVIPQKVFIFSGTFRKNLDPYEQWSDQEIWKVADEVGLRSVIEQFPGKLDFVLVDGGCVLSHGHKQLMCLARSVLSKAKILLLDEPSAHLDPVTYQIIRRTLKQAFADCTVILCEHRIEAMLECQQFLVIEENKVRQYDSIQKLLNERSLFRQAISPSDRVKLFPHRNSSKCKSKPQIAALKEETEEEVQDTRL

EC50 (Table 11) [nM]	Emax (Table 11) [%]	further results	Compound
1000 to 3000	> 60		COCCN1CCCC(CN2C(=O)c3cccc(c3)S(=O)(=O)Nc3nc(cc(-c4c(C)cccc4C)n3)OC[C@H]2CC(C)(C)C)C1=O (stereo partly shown) [Compound 641]
1000 to 3000	> 60		Cc1cccc(C)c1-c1cc2nc(n1)NS(=O)(=O)c1cccc(c1)C(=O)N(Cc1ncc(C3CC3)cn1)[C@H](CC(C)(C)C)CO2 [Compound 642]
< 1000	> 60		Cc1cccc(C)c1-c1cc2nc(n1)NS(=O)(=O)c1cccc(c1)C(=O)N(Cc1ncc(C#N)cn1)[C@H](CC(C)(C)C)CO2 [Compound 643]
1000 to 3000	> 60		Cc1cccc(C)c1-c1cc2nc(n1)NS(=O)(=O)c1cccc(c1)C(=O)N(Cc1ncc(C3CCCCC3)cn1)[C@H](CC(C)(C)C)CO2 [Compound 644]
< 1000	> 60		Cc1cccc(C)c1-c1cc2nc(n1)NS(=O)(=O)c1cccc(c1)C(=O)N(Cc1nccc(N)n1)[C@H](CC(C)(C)C)CO2 [Compound 645]
< 1000	> 60		Cc1cccc(C)c1-c1cc2nc(n1)NS(=O)(=O)c1cccc(c1)C(=O)N(Cc1nccc(NCC(C)(C)C)n1)[C@H](CC(C)(C)C)CO2 [Compound 646]
< 1000	> 60		CNc1ccnc(CN2C(=O)c3cccc(c3)S(=O)(=O)Nc3nc(cc(-c4c(C)cccc4C)n3)OC[C@H]2CC(C)(C)C)n1 [Compound 647]
< 1000	> 60		Cc1cccc(C)c1-c1cc2nc(n1)NS(=O)(=O)c1cccc(c1)C(=O)N(Cc1nccc(N3CCC(C)(C)C3)n1)[C@H](CC(C)(C)C)CO2 [Compound 648]
< 1000	> 60		Cc1cccc(C)c1-c1cc2nc(n1)NS(=O)(=O)c1cccc(c1)C(=O)N(Cc1nccc(N(C)C)n1)[C@H](CC(C)(C)C)CO2 [Compound 649]
< 1000	> 60		Cc1cccc(C)c1-c1cc2nc(n1)NS(=O)(=O)c1cccc(c1)C(=O)N(Cc1nccc(N(C)CC(C)(C)C)n1)[C@H](CC(C)(C)C)CO2 [Compound 650]
< 1000	> 60		Cc1cccc(C)c1-c1cc2nc(n1)NS(=O)(=O)c1cccc(c1)C(=O)N(Cc1nccc(N3CCOCC3)n1)[C@H](CC(C)(C)C)CO2 [Compound 651]
< 1000	> 60	activation at 10 µM (Table 11): > 60%	Cc1cccc(C)c1-c1cc2nc(n1)NS(=O)(=O)c1cccc(c1)C(=O)N(CC1CCN(CCC(C)(C)C)C1=O)[C@H](CC(C)(C)C)CO2 (stereo partly shown) [Compound 652]
< 1000			Cc1cccc(C)c1-c1cc2nc(n1)NS(=O)(=O)c1cccc(c1)C(=O)N(CC1CCN(CCC(C)(C)C)C1=O)[C@H](CC(C)(C)C)CO2 (stereo partly shown) [Compound 653]
< 1000	> 60		Cc1cccc(C)c1-c1cc2nc(n1)NS(=O)(=O)c1cccc(c1)C(=O)N(CC1CCCN(CCC(C)(C)C)C1=O)[C@H](CC(C)(C)C)CO2 (stereo partly shown) [Compound 654]
< 1000			Cc1cccc(C)c1-c1cc2nc(n1)NS(=O)(=O)c1cccc(c1)C(=O)N(CC1CCCN(CCC(C)(C)C)C1=O)[C@H](CC(C)(C)C)CO2 (stereo partly shown) [Compound 655]
< 1000	> 60		Cc1cccc(C)c1-c1cc2nc(n1)NS(=O)(=O)c1cccc(c1)C(=O)N(Cc1nccc(OC(C)C)n1)[C@H](CC(C)(C)C)CO2 [Compound 656]
< 1000	> 60		COCCN(C)c1ccnc(CN2C(=O)c3cccc(c3)S(=O)(=O)Nc3nc(cc(-c4c(C)cccc4C)n3)OC[C@H]2CC(C)(C)C)n1 [Compound 657]
		EC50 (Table 13): < 1000 nM; Emax (Table 13): > 60%	Cc1cccc(C)c1-c1cc2nc(n1)NS(=O)(=O)c1cccc(c1)C(=O)N(Cc1ncc(OC3CCC3)cc1Cl)[C@H](CC(C)(C)C)CO2 [Compound 690]

EC50 (Table 11) [nM]	Emax (Table 11) [%]	further results	Compound
		EC50 (Table 13): < 1000 nM; Emax (Table 13): > 60%	Cc1cccc(C)c1-c1cc2nc(n1)NS(=O)(=O)c1cccc(c1)C(=O)N(Cc1ncc(OC(C)C)cc1Cl)[C@H](CC(C)(C)C)CO2 [Compound 691]
		activation at 10 µM (Table 12): 30 to 60%	Cc1cccc(C)c1-c1cc2nc(n1)NS(=O)(=O)c1cccc(c1)C(=O)N(Cc1cnc(N3CCOCC3)s1)[C@H](CC(C)(C)C)CO2 [Compound 693]
		EC50 (Table 12): < 1000 nM; Emax (Table 12): > 60%	Cc1cccc(C)c1-c1cc2nc(n1)NS(=O)(=O)c1cccc(c1)C(=O)N(Cc1cncc(N(C)CC(C)(C)C)n1)[C@H](C(C)C)CO2 [Compound 694]
		activation at 10 µM (Table 12): > 600%; EC50 (Table 12): < 1000 nM; Emax (Table 12): < 30%	Cc1cccc(C)c1-c1cc2nc(n1)NS(=O)(=O)c1cccc(c1)C(=O)N(Cc1ncc(N3CCC(C)(C)C3)cn1)[C@H](C(C)C)CO2 [Compound 695]
		activation at 10 µM (Table 12): > 600%; EC50 (Table 12): < 1000 nM; Emax (Table 12): < 30%	Cc1cccc(C)c1-c1cc2nc(n1)NS(=O)(=O)c1cccc(c1)C(=O)N(Cc1ncc(OC(C)C)cn1)[C@H](C(C)C)CO2 [Compound 696]
		activation at 10 µM (Table 12): > 600%	Cc1cccc(C)c1-c1cc2nc(n1)NS(=O)(=O)c1cccc(c1)C(=O)N(Cc1ccc3nc(NC(=O)CC(C)C)sc3c1)[C@H](CC(C)(C)C)CO2 [Compound 697]
		activation at 10 µM (Table 12): > 600%	Cc1cccc(C)c1-c1cc2nc(n1)NS(=O)(=O)c1cccc(c1)C(=O)N(Cc1nccnc1C)[C@H](CC(C)(C)C)CO2 [Compound 698]
		EC50 (Table 12): < 1000 nM; Emax (Table 12): > 60%	Cc1cccc(C)c1-c1cc2nc(n1)NS(=O)(=O)c1cccc(c1)C(=O)N(Cc1cn3ccccc3n1)[C@H](CC(C)(C)C)CO2 [Compound 699]
		activation at 10 µM (Table 12): > 600%	Cc1cccc(C)c1-c1cc2nc(n1)NS(=O)(=O)c1cccc(c1)C(=O)N(Cc1nc3ccccn3c1C)[C@H](CC(C)(C)C)CO2 [Compound 700]
		activation at 10 µM (Table 12): > 600%	Cc1cccc(C)c1-c1cc2nc(n1)NS(=O)(=O)c1cccc(c1)C(=O)N(Cc1nc(C3CC3)cs1)[C@H](CC(C)(C)C)CO2 [Compound 701]
		activation at 10 µM (Table 12): > 600%	Cc1cccc(C)c1-c1cc2nc(n1)NS(=O)(=O)c1cccc(c1)C(=O)N(Cc1nc(C(C)(C)C)cs1)[C@H](CC(C)(C)C)CO2 [Compound 702]
		EC50 (Table 12): < 1000 nM; Emax (Table 12): > 60%	Cc1cccc(C)c1-c1cc2nc(n1)NS(=O)(=O)c1cccc(c1)C(=O)N(Cc1coc(C(C)C)n1)[C@H](CC(C)(C)C)CO2 [Compound 703]
		EC50 (Table 12): < 1000 nM; Emax (Table 12): > 60%	Cc1cccc(C)c1-c1cc2nc(n1)NS(=O)(=O)c1cccc(c1)C(=O)N(Cc1nc(C(C)C)cs1)[C@H](CC(C)(C)C)CO2 [Compound 704]
		EC50 (Table 12): < 1000 nM; Emax (Table 12): > 60%	Cc1cccc(C)c1-c1cc2nc(n1)NS(=O)(=O)c1cccc(c1)C(=O)N(Cc1ncc(C(C)C)s1)[C@H](CC(C)(C)C)CO2 [Compound 705]
		EC50 (Table 12): < 1000 nM; Emax (Table 12): > 60%	Cc1cccc(C)c1-c1cc2nc(n1)NS(=O)(=O)c1cccc(c1)C(=O)N(Cc1ccc(C3CC(C)(C)CCO3)cn1)[C@H](CC(C)(C)C)CO2 (stereo partly shown) [Compound 706]
		EC50 (Table 12): < 1000 nM; Emax (Table 12): > 60%	Cc1cccc(C)c1-c1cc2nc(n1)NS(=O)(=O)c1cccc(c1)C(=O)N(Cc1ccc(C3CCCCO3)cn1)[C@H](CC(C)(C)C)CO2 (stereo partly shown) [Compound 707]
1000 to 3000	> 60		Cc1cccc(C)c1-c1cc2nc(n1)NS(=O)(=O)c1cccc(c1)C(=O)N(Cc1ncc(N3CCC4(CC3)CC4)cn1)[C@H](CC(C)(C)C)CO2 [Compound 708]
< 1000	30 to 60		Cc1cccc(C)c1-c1cc2nc(n1)NS(=O)(=O)c1cccc(c1)C(=O)N(Cc1cccc(N3[C@H](C)CC[C@@H]3C)n1)[C@H](CC(C)(C)C)CO2 [Compound 709]
